Source: PubChem BioAssay AID2060906 (Molecular Pharmacology Branch, DTP, NCI, 2025)
One block for each compound: values may come before it.

System: 485176-168-R4-J1-PDC complex spheroid growth
Experiment: Anticancer human tumor 485176-168-R4-J1-PDC patient-derived pancreatic adenocarcinoma cell line growth inhibition [RAS]
Settings: for IC50: curve of first compound; for viability, T/C: stronger effect = lower value
Text: RAS pathway inhibitors in Combinations in Complex Spheroids
A high-throughput screen of multi-cell type tumor spheroids was designed to identify active combinations of RAS pathway inhibitors and targeted small molecules. Complex spheroids include a stromal component modeled by human endothelial cells (HUVEC) and fibroblasts modeled by human mesenchymal stem cells (MSCs). The concentration ranges selected for each drug and investigational agent were based upon clinically achievable concentrations if the clinical Cmax of the agent was known.
Compounds. The drugs and investigational agents: abemaciclib (NSC768073), cobimetinib (NSC768068), divarasib (GDC6063, NSC841802), docetaxel (NSC628503), GDC-1971 (RLY-1971, NSC841576), gemcitabine (NSC613327), inavolisib (NSC800729), ipatasertib (NSC767898), KB-0742 (NSC834161), MRTX-1133 (NSC836407), osimertinib (NSC779217), RMC-4630 (NSC839698), RMC-6236 (NSC851965), RMC-6291 (NSC852671), Ro-3306 (NSC812927), sapanisertib (NSC764658), SN-38 (NSC673596), staurosporine (NSC755774), SY5609 (NSC837396), and tovorafenib (DAY101, NSC766906), were obtained from the National Cancer Institute (NCI) Developmental Therapeutics Program Chemical Repository. The FDA-approved anticancer drug set is available from the NCI Developmental Therapeutics Program. […] The stock solutions were prepared in dimethyl sulfoxide (DMSO, Sigma-Aldrich, St. Louis, MO, cat. D2650) at 800-fold the tested concentration and stored at -70 degrees C prior to their use. All drugs and investigational agents were tested over a range starting from a high concentration at or near the clinical Cmax and decreasing in half-log increments. If the clinical Cmax for an agent had not been determined, the highest concentration tested was 10 microM.
Cell Culture. All cells were maintained in an incubator at 37 degrees C and 5% CO2 with 95% humidity. The PDC lines were cultured according to standard operating procedures established by the NCI PDMR. All PDCs were thawed and cultured in Matrigel-coated flasks prepared with a working solution of 1X Ham's F-12 nutrient mix, without supplementation (Invitrogen, Waltham, MA, cat. 11765054), 100 U/mL penicillin-streptomycin (Invitrogen, cat. 15140122), and 2.5% Matrigel (Corning Inc., Corning, NY, cat. 354248) for the first three passages. The 362531-283-R-J2-PDC and 782815-120-R-J1-PDC lines were cultured in 6C/Colon 1B media, which includes advanced DMEM/F-12 (Thermo Fisher Scientific, cat. 12634028), 10 mM HEPES (Thermo Fisher Scientific, cat. 15630080), 1X GlutaMAX supplement (Thermo Fisher Scientific, cat. 35050061), 0.1 mg/mL primocin (InvivoGen, San Diego, CA, cat. ant-pm-2), 10% defined fetal bovine serum, heat inactivated (HyClone Laboratories Inc., Logan, UT, cat. SH30070.03HI), 50% L-WRN conditioned media (ATCC, cat. CRL-3276), 1.25 mM N-Acetyl-L-cysteine (Sigma-Aldrich, cat. A9165), 10 mM nicotinamide (Sigma-Aldrich, cat. N0636), 1X B-27 supplement (Thermo Fisher Scientific, cat. 17504044), 1X N-2 supplement (Thermo Fisher Scientific, cat. 17502048), 50 ng/mL human EGF (Thermo Fisher Scientific, cat. PHG0311), and 10 microM Y-27632 dihydrochloride (Tocris Bioscience, cat. 1254). The K12877-001-R-J1-PDC line was cultured in 6I media, which includes all 6C/Colon 1B media plus 10 ng/mL human FGF-10 (PeproTech, cat. 100-26), 1 ng/mL human FGF-2 (PeproTech, cat. 100-18B), 1 µM prostaglandin E2 (Tocris Bioscience, cat. 2296), […] hydrocortisone (Sigma-Aldrich, cat. H4001), and […] bovine insulin (Sigma-Aldrich, cat. I6634). The K86415-001-R-J1-PDC line was cultured in 6D media, which includes all 6C/Colon 1B media components minus the L-WRN conditioned media. The 485176-168-R4-J1-PDC was cultured in PANC media, which includes all 6C/Colon 1B media plus 100 ng/mL human FGF-10 (PeproTech, cat. 100-26), 500 nM SB-431542 (Selleckchem, cat. S1067), and 10 nM gastrin (Tocris Bioscience, cat. 3006). […]

[1] = second compound 0.0316 µM, first compound 0.0316 µM
[2] = second compound 0.0316 µM, first compound 0.1 µM
[3] = second compound 0.0316 µM, first compound 0.316 µM
[4] = second compound 0.0316 µM, first compound 1 µM
[5] = second compound 0.1 µM, first compound 0.0316 µM
[6] = second compound 0.1 µM, first compound 0.1 µM
[7] = second compound 0.1 µM, first compound 0.316 µM
[8] = second compound 0.1 µM, first compound 1 µM
[9] = second compound 0.316 µM, first compound 0.0316 µM
[10] = second compound 0.316 µM, first compound 0.1 µM
[11] = second compound 0.316 µM, first compound 0.316 µM
[12] = second compound 0.316 µM, first compound 1 µM
[13] = second compound 1 µM, first compound 0.0316 µM
[14] = second compound 1 µM, first compound 0.1 µM
[15] = second compound 1 µM, first compound 0.316 µM
[16] = second compound 1 µM, first compound 1 µM
[17] = second compound 3.16 µM, first compound 0.0316 µM
[18] = second compound 3.16 µM, first compound 0.1 µM
[19] = second compound 3.16 µM, first compound 0.316 µM
[20] = second compound 3.16 µM, first compound 1 µM
[21] = second compound 10 µM, first compound 0.0316 µM
[22] = second compound 10 µM, first compound 0.1 µM
[23] = second compound 10 µM, first compound 0.316 µM
[24] = second compound 10 µM, first compound 1 µM
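Note: spheroids exposed to compounds for seven days before readout.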
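Throughout, for viability, T/C: luminescence viability expressed relative to DMSO vehicle wells set as 100%.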

IC50 (second compound 0.0316 µM): > 1 µM
IC50 (second compound 0.1 µM): > 1 µM
IC50 (second compound 0.316 µM): > 1 µM
IC50 (second compound 1 µM): > 1 µM
IC50 (second compound 3.16 µM): > 1 µM
IC50 (second compound 10 µM): > 1 µM
Compound: CCN1CCN(Cc2ccc(Nc3ncc(F)c(-c4cc(F)c5nc(C)n(C(C)C)c5c4)n3)nc2)CC1 + C#Cc1c(F)ccc2cc(O)cc(-c3ncc4c(N5CC6CCC(C5)N6)nc(OCC56CCCN5CC(F)C6)nc4c3F)c12
viability, T/C (second compound 0.0316 µM, first compound 0.00316 µM): 91.1%
viability, T/C (second compound 0.0316 µM, first compound 0.01 µM): 83.4%
viability, T/C [1]: 101%
viability, T/C [2]: 100%
viability, T/C [3]: 73.9%
viability, T/C [4]: 64.9%
viability, T/C (second compound 0.1 µM, first compound 0.00316 µM): 117%
viability, T/C (second compound 0.1 µM, first compound 0.01 µM): 109%
viability, T/C [5]: 79.7%
viability, T/C [6]: 85.1%
viability, T/C [7]: 78.8%
viability, T/C [8]: 55.4%
viability, T/C (second compound 0.316 µM, first compound 0.00316 µM): 97.1%
viability, T/C (second compound 0.316 µM, first compound 0.01 µM): 95.6%
viability, T/C [9]: 90.7%
viability, T/C [10]: 104%
viability, T/C [11]: 84.3%
viability, T/C [12]: 63.9%
viability, T/C (second compound 1 µM, first compound 0.00316 µM): 96.8%
viability, T/C (second compound 1 µM, first compound 0.01 µM): 101%
viability, T/C [13]: 101%
viability, T/C [14]: 86.8%
viability, T/C [15]: 72%
viability, T/C [16]: 70.1%
viability, T/C (second compound 3.16 µM, first compound 0.00316 µM): 110%
viability, T/C (second compound 3.16 µM, first compound 0.01 µM): 92.8%
viability, T/C [17]: 81.5%
viability, T/C [18]: 92.8%
viability, T/C [19]: 77.5%
viability, T/C [20]: 61.3%
viability, T/C (second compound 10 µM, first compound 0.00316 µM): 103%
viability, T/C (second compound 10 µM, first compound 0.01 µM): 95.5%
viability, T/C [21]: 84.4%
viability, T/C [22]: 79.6%
viability, T/C [23]: 96.6%
viability, T/C [24]: 61.6%

IC50 (second compound 0.0316 µM): > 10 µM
IC50 (second compound 0.1 µM): > 10 µM
IC50 (second compound 0.316 µM): > 10 µM
IC50 (second compound 1 µM): > 10 µM
IC50 (second compound 3.16 µM): > 10 µM
IC50 (second compound 10 µM): > 10 µM
Compound: C[C@@H](NC(=O)c1ncnc(N)c1Cl)c1ncc(C(=O)Nc2cc(C(F)(F)F)c(Cl)cn2)s1 + C#Cc1c(F)ccc2cc(O)cc(-c3ncc4c(N5CC6CCC(C5)N6)nc(OCC56CCCN5CC(F)C6)nc4c3F)c12
viability, T/C [1]: 123%
viability, T/C [2]: 101%
viability, T/C [3]: 102%
viability, T/C [4]: 78.9%
viability, T/C (second compound 0.0316 µM, first compound 3.16 µM): 87.8%
viability, T/C (second compound 0.0316 µM, first compound 10 µM): 58.8%
viability, T/C [5]: 106%
viability, T/C [6]: 100%
viability, T/C [7]: 86.7%
viability, T/C [8]: 81.7%
viability, T/C (second compound 0.1 µM, first compound 3.16 µM): 73.5%
viability, T/C (second compound 0.1 µM, first compound 10 µM): 62.1%
viability, T/C [9]: 97.2%
viability, T/C [10]: 86.3%
viability, T/C [11]: 73%
viability, T/C [12]: 84.1%
viability, T/C (second compound 0.316 µM, first compound 3.16 µM): 69.9%
viability, T/C (second compound 0.316 µM, first compound 10 µM): 63%
viability, T/C [13]: 84.8%
viability, T/C [14]: 81.8%
viability, T/C [15]: 101%
viability, T/C [16]: 75.3%
viability, T/C (second compound 1 µM, first compound 3.16 µM): 74.7%
viability, T/C (second compound 1 µM, first compound 10 µM): 57.2%
viability, T/C [17]: 103%
viability, T/C [18]: 96.8%
viability, T/C [19]: 94.7%
viability, T/C [20]: 80.5%
viability, T/C (second compound 3.16 µM, first compound 3.16 µM): 69.8%
viability, T/C (second compound 3.16 µM, first compound 10 µM): 63%
viability, T/C [21]: 97.6%
viability, T/C [22]: 87%
viability, T/C [23]: 83.6%
viability, T/C [24]: 80.3%
viability, T/C (second compound 10 µM, first compound 3.16 µM): 75%
viability, T/C (second compound 10 µM, first compound 10 µM): 58.1%
